Laboratory results reported in patent US9012640B2, “Cabergoline derivatives” (MAP Pharmaceuticals, Inc., priority 2012, dated 2015).
Read-outs that look alike come from different tables or passages of the source.

How the values were obtained:
[1] = biological target: T1, Recombinant human serotonin receptor 5-HT2A (Homo sapiens, UniProt P28223); experiment: Aequorin assay, receptor agonist/antagonist activity, CHO-K1 cells; assay type: cell-based
T1 construct: expressed in transfected cells; host or cells: CHO-K1 (coexpressing mitochondrial apoaequorin)
T1 sequence (P28223 whole entry): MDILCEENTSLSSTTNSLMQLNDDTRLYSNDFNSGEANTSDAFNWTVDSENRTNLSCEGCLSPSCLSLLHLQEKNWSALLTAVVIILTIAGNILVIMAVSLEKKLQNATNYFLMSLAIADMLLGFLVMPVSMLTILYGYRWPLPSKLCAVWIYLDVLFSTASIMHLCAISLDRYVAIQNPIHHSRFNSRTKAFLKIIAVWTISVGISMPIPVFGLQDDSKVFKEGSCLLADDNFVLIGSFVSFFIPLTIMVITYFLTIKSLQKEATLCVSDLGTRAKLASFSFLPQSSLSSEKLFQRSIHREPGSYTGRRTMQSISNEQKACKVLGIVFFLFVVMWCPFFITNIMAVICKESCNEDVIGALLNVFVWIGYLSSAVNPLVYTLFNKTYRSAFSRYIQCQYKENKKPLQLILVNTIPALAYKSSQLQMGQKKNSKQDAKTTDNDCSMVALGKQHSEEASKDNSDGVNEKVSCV
Method: (§1) Compound 1 was synthesized as described above and assayed for receptor activity against a panel of dopaminergic and serotoninergic receptors. Recombinant human serotonin receptors 5-HT2A, and 5-HT2B were expressed in CHO-K1 cells and activity (receptor agonist/antagonist activity) was assayed using an Aequorin assay (coexpression of mitochondrial apoaequorin). Compound 1 was used at a concentration of 0.010 nM to 20,000 nM for agonist activity and 0.005 nM to 10,000 nM for antagonist activity.

[2] = biological target: T2, Recombinant human serotonin receptor 5-HT2B (Homo sapiens, UniProt P41595); experiment: as above; assay type: cell-based
T2 construct: expressed in transfected cells; host or cells: CHO-K1 (coexpressing mitochondrial apoaequorin)
T2 sequence (P41595 whole entry): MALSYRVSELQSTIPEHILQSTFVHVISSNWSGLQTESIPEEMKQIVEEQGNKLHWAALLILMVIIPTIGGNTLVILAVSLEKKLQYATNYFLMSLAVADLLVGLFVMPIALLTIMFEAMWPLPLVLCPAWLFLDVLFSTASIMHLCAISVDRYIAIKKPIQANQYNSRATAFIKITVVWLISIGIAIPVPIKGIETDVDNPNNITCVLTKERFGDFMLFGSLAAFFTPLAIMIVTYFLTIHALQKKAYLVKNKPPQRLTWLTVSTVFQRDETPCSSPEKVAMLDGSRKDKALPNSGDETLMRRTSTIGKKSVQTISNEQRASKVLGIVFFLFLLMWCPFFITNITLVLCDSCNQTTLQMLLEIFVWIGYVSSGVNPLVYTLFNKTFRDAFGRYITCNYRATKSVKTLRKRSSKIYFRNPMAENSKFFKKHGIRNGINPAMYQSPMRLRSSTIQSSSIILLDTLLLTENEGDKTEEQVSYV
Method: as §1

[3] = biological target: Recombinant human dopaminergic receptor D1 (Homo sapiens, UniProt P21728); experiment: GTPγS functional assay; assay type: biochemical
Chain of Recombinant human dopaminergic receptor D1 (P21728 whole entry): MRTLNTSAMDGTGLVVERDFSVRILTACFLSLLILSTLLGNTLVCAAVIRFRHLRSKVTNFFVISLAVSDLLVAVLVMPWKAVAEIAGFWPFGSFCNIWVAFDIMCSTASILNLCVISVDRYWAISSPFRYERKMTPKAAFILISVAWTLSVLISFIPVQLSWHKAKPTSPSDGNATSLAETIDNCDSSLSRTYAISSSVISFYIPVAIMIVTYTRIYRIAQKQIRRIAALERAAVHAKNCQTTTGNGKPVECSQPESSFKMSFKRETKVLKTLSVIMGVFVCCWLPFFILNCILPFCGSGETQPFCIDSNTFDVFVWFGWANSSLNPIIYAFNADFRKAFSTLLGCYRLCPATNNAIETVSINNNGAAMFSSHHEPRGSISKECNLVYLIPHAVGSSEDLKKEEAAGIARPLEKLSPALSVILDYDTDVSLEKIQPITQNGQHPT
Method: (§2) Recombinant human dopaminergic receptor D1, D2L, and D4 and serotonin receptor 5-HT1B and 5-HTID activity was assayed using a GTPΥS functional assay with Compound 1 at concentrations between 0.01 nM and 10,000 nM.

[4] = biological target: Recombinant human dopaminergic receptor D2L (Homo sapiens, UniProt P14416); experiment: GTPγS functional assay; assay type: biochemical; conditions: read-out: EC50, agonist activity with the D2L receptor
Chain of Recombinant human dopaminergic receptor D2L (P14416 whole entry): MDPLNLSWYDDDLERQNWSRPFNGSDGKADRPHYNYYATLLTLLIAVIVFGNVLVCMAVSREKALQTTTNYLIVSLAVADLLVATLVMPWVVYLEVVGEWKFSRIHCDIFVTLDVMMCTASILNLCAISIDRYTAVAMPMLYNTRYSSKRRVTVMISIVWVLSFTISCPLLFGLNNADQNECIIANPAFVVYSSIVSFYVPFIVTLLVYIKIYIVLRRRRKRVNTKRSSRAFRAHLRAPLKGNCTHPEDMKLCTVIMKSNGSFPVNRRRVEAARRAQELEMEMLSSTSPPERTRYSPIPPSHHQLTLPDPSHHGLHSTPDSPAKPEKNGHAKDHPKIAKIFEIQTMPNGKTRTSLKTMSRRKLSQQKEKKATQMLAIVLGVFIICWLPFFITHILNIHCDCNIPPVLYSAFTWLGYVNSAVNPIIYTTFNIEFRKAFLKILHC
Method: as §2

[5] = biological target: T3, Recombinant human dopaminergic receptor D4 (Homo sapiens, UniProt P21917); experiment: GTPγS functional assay; assay type: biochemical
T3 sequence (P21917 1-419): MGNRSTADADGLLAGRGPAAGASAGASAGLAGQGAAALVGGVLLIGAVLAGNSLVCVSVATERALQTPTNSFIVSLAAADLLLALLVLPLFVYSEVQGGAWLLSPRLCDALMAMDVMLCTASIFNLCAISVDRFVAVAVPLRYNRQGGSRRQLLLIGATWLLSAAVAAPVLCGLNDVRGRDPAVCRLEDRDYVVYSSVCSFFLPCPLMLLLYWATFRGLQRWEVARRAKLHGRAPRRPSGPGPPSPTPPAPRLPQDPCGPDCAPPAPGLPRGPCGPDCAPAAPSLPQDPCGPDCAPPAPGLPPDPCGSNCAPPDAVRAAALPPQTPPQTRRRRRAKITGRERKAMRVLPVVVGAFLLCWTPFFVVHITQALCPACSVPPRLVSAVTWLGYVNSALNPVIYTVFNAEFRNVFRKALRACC
Method: as §2

[6] = biological target: T4, serotonin receptor 5-HT1B (Homo sapiens, UniProt P28222); experiment: GTPγS functional assay; assay type: biochemical; conditions: 0.01 nM to 10,000 nM
T4 sequence (P28222 whole entry): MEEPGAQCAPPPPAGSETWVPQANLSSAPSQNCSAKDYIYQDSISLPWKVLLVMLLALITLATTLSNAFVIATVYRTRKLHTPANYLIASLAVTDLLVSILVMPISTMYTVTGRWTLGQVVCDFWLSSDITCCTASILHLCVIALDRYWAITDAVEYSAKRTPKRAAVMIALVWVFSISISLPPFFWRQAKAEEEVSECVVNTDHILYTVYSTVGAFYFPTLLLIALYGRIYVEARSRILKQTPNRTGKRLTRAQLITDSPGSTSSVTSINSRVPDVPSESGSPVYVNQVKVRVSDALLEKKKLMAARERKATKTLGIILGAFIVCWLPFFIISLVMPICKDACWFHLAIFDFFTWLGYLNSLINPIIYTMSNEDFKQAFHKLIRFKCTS
Method: as §2

[7] = biological target: T5, serotonin receptor 5-HT1D (Homo sapiens, UniProt P28221); experiment: GTPγS functional assay; assay type: biochemical
T5 sequence (P28221 whole entry): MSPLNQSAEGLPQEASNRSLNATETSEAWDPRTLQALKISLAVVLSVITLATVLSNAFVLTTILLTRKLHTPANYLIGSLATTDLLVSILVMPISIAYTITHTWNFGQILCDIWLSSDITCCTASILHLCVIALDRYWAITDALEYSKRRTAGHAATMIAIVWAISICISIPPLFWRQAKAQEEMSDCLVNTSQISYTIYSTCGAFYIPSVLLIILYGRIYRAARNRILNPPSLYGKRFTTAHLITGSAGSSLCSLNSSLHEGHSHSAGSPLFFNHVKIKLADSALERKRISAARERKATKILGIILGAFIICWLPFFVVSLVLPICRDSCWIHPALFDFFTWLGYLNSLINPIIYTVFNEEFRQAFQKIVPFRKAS
Method: as §2

[8] = biological target: T1, Recombinant human serotonin receptor 5-HT2A; conditions: reported, Newman-Tancredi et al. 2002; read-out: reported EC50 on 5-HT2A receptors; cited from earlier work
[9] = biological target: T2, Recombinant human serotonin receptor 5-HT2B; conditions: reported, Newman-Tancredi et al. 2002; read-out: reported EC50 on 5-HT2B receptors; cited from earlier work
[10] = biological target: T3, Recombinant human dopaminergic receptor D4; conditions: cited from earlier work
[11] = biological target: T5, serotonin receptor 5-HT1D; conditions: cited from earlier work
[12] = biological target: T4, serotonin receptor 5-HT1B; conditions: read-out: EC50 on 5-HT1B receptors, reported; Newman-Tancredi et al. 2002; cited from earlier work

C=CCN1C[C@H](C(=O)N(CCCN(C)C)C(=O)NCC)C[C@@H]2c3cccc4[nH]c(C(F)(F)F)c(c34)C[C@H]21 [Compound 1]
EC50 ([1]; agonist activity, Aequorin assay, CHO-K1, read-out: EC50 on 5-HT2A receptors): 946 nM | 5-HT2A receptor agonist activity in words ([1]; as compared to cabergoline): weak | EC50 ([2]; agonist activity, Aequorin assay, CHO-K1, read-out: EC50 on 5-HT2B receptors): 6050 nM | 5-HT2B receptor agonist activity in words ([2]; as compared to cabergoline): weak | selectivity for the D2L receptor over the D1 receptor [3]: approximately 110 fold | EC50 [4]: 12.6 nM | Emax ([5]; GTPγS, receptor not given, follows the D2L/D4 comparison): 26% | D2L to D4 receptor selectivity ([5]; when comparing EC50): 18 fold | activity on 5-HT1B receptors [6]: not active | agonist activity on serotonin receptor 5-HT1D in words [7]: weak agonist activity | EC50 ([7]; GTPγS, read-out: EC50, agonist on 5-HT1D receptors): 263 nM | Emax ([7]; GTPγS, read-out: Emax on 5-HT1D receptors): 31%

C=CCN1C[C@H](C(=O)N(CCCN(C)C)C(=O)NCC)C[C@@H]2c3cccc4[nH]cc(c34)C[C@H]21 [cabergoline, Cabergoline]
EC50 [8]: 7.8 nM | EC50 [9]: 2.6 nM | D2L to D4 receptor selectivity, reported ([10]; reported results for cabergoline): ~200 fold | Emax, reported ([10]; reported values, Newman-Tancredi et al. 2002, receptor not given): 49% | EC50 ([11]; Newman-Tancredi et al. 2002, read-out: EC50 on 5-HT1D receptors, reported): 16 nM | Emax on 5-HT1D receptors, cabergoline comparison ([11]; comparison value for cabergoline): 68% | EC50 [12]: 2240 nM
